These results are taken from patent publication US20240376097A1, “BCL-2 Inhibitor” (BeiGene Ltd., priority 2020, published 2024).

Read-outs that look alike come from different tables or passages of the source.

In assay [1] the test system is BCL-2 G101V knock-in cell line H96 (derive from RS4;11). As to the kind of experiment: Bcl 2-G101V Knock-In RS4;11 Cell Proliferation Assay. The conditions noted are these: Homo sapiens, RS4;11 Bcl-2 G101V knock-in clone H96, 48 hrs, CellTiter-GLO, read-out: Cellular proliferation assay (IC50, nM) RS4. The format is cell-based. The method, boiled down:
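CellTiter-Glo luminescence after 48 h, 37 °C compound treatment (10 concentrations, maximum 1 μM or 10 μM) gave mean IC50 values. Cells were 50,000 per well of H96, a BCL2-G101V knock-in single clone derived from RS4;11 by Cas9 editing.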
(In general: Cellular ATP, detected with luciferase, serves as a proxy for viable cell number.)

The target in assay [2] is Recombinant human Bcl-2 protein (Homo sapiens (Human), UniProt P10415). Briefly: Bcl-2 TR-FRET Assay. The format is binding. The method, boiled down:
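TR-FRET read (337 nm excitation, 520/490 nm emission) after 1 h with 0.5 nM FITC-labeled Bak peptide and Tb-cryptate anti-6His antibody. Bcl-2 at 0.05 nM had been pre-incubated 0.5 h with compound. IC50 fitted by four-parameter logistic equation.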
Background: Time-resolved FRET reads energy transfer from a long-lived donor to a nearby acceptor.

In assay [3] the target is recombinant human Bcl-2 D103Y protein (Homo sapiens (Human), UniProt P10415, D103Y). As to the kind of experiment: Bcl-2-D103Y Biochemical Assay (TR-FRET). The format is binding. As to conditions: for IC50: TR-FRET, FITC labeled Bak peptide; for Ratio of Bcl-2 D103Y/Bcl-2 WT: ratio of IC50. The method, boiled down:
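Compounds titrated against the Bcl-2 D103Y–ligand interaction; inhibition derived from the TR-FRET emission ratio 490 nm/520 nm after 337 nm excitation. Four-parameter logistic fitting gave IC50.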

Assay [4] has as its system recombinant human Bcl-2-G101V protein. Briefly: Bcl-2-G101V TR-FRET Assay. The format is binding. The conditions noted are these: ratio of biochemical IC50 Bcl-2 G101V / Bcl-2 WT. The method, boiled down:
(§1)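 Percent inhibition of the Bcl-2-G101V–ligand interaction was computed from the 490 nm to 520 nm emission ratio after 337 nm excitation, over increasing compound concentrations; a four-parameter logistic fit gave IC50.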

The target in assay [5] is recombinant human Bcl-2-G101V protein (Homo sapiens (Human), UniProt P10415, G101V). As to the kind of experiment: Bcl-2-G101V TR-FRET Assay. As to conditions: Bcl-2 G101V mutant, TR-FRET; read-out: Biochemical assay (IC50, nM) Bcl-2 G101V. The format is binding. The method, boiled down: as §1
Assay [6] deals with RS4;11 (BCL-2 dependent acute lymphoblastic leukemia cell line). Briefly: RS4;11 Cell Proliferation Assay. The format is cell-based. The conditions noted are these: Homo sapiens, RS4-11, RS4;11 cells, read-out: Cellular proliferation assay (IC50, nM) RS4. The method, boiled down: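 Viability measured via CellTiter-Glo luminescence after a 48 h, 37 °C exposure to compounds (10 points, highest 1 μM). Seeding was 50,000 RS4;11 cells per well in 10% FBS RPMI-1640; IC50 given as mean.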

The mark [7] stands for this setting: Bcl-2 wild type, TR-FRET, read-out: Biochemical assay (IC50, nM) Bcl-2 WT.
[8] abbreviates: wild type Bcl-2, unit inferred, read-out: Bcl-2 WT.

As to `COc1cc(CN2CCN(C3CC4(C3)CN(c3ccc(C(=O)NS(=O)(=O)c5ccc(NC[C@H]6CC[C@](C)(O)CC6)c([N+](=O)[O-])c5)c(Oc5cnc6[nH]ccc6c5)c3)C4)[C@H](c3ccccc3C(C)C)C2)cc2cc(C)oc12` [Example 339, 2-((1H-pyrrolo[2,3-b]pyridin-5-yl)oxy)-N-((4-((((1r,4r)-4-hydroxy-4-methylcyclohexyl)methyl)amino)-3-nitrophenyl)sulfonyl)-4-(6-((R)-2-(2-isopropylphenyl)-4-((7-methoxy-2-methylbenzofuran-5-yl)methyl)piperazin-1-yl)-2-azaspiro[3.3]heptan-2-yl) benzamide], the IC50 worked out at 0.52 nM in assay [1]; 0.28 nM in assay [2] (setting [7]); 0.28 nM in assay [2] (setting [8]); 0.71 nM in assay [3]; 0.97 nM in assay [5]; 0.19 nM in assay [6]. Besides, in assay [3], the “Ratio of Bcl-2 D103Y/Bcl-2 WT” value came out at 2.5. Also, the “Ratio of Bcl-2 G101V/WT” value in assay [4] stood at 3.5.

On to `COc1cc(CN2CCN(C3CC4(C3)CN(c3ccc(C(=O)NS(=O)(=O)c5ccc(NC[C@H]6CC[C@](C)(O)CC6)c([N+](=O)[O-])c5)c(Oc5cnc6[nH]ccc6c5)c3)C4)[C@H](c3ccccc3C(C)C)C2)ccc1OC1CC1` [Example 343, 2-((1H-pyrrolo[2,3-b]pyridin-5-yl)oxy)-4-(6-((R)-4-(4-cyclopropoxy-3-methoxybenzyl)-2-(2-isopropylphenyl)piperazin-1-yl)-2-azaspiro[3.3]heptan-2-yl)-N-((4-((((1r,4r)-4-hydroxy-4-methylcyclohexyl)methyl)amino)-3-nitrophenyl)sulfonyl)benzamide], for which the IC50 in assay [1] stood at 0.25 nM; in assay [2] (setting [7]), 0.11 nM; in assay [2] (setting [8]) it was 0.11 nM; in assay [3], 0.09 nM; in assay [5], 0.3 nM; in assay [6], 0.11 nM. Also, the “Ratio of Bcl-2 D103Y/Bcl-2 WT” value in assay [3] was found to be 0.8. Further, in assay [4], the “Ratio of Bcl-2 G101V/WT” value amounted to 2.7.

Take `COc1cc(CN2CCN(C3CC4(C3)CN(c3ccc(C(=O)NS(=O)(=O)c5ccc(NC[C@H]6CC[C@](C)(O)CC6)c([N+](=O)[O-])c5)c(Oc5cnc6[nH]cc(F)c6c5)c3)C4)[C@H](c3ccccc3C(C)C)C2)ccc1C1COC1` [Example 345, 2-((3-fluoro-1H-pyrrolo[2,3-b]pyridin-5-yl)oxy)-N-((4-((((1r,4r)-4-hydroxy-4-methylcyclohexyl)methyl)amino)-3-nitrophenyl)sulfonyl)-4-(6-((R)-2-(2-isopropylphenyl)-4-(3-methoxy-4-(oxetan-3-yl)benzyl)piperazin-1-yl)-2-azaspiro[3.3]heptan-2-yl) benzamide]: the IC50 in assay [1] worked out at 0.24 nM; in assay [2] (setting [7]), 0.16 nM; in assay [2] (setting [8]), 0.16 nM; in assay [3] it was 0.13 nM; in assay [5], 0.38 nM; in assay [6], 0.14 nM. The “Ratio of Bcl-2 D103Y/Bcl-2 WT” value in assay [3] is 0.8. Moreover, in assay [4], the “Ratio of Bcl-2 G101V/WT” value turned out to be 2.4.

`COc1cc(CN2CCN(C3CC4(C3)CN(c3ccc(C(=O)NS(=O)(=O)c5ccc(NC[C@H]6CC[C@](C)(O)CC6)c([N+](=O)[O-])c5)c(Oc5cnc6[nH]cc(F)c6c5)c3)C4)[C@H](c3ccccc3C(C)C)C2)cc2c1OCCCC2` [Example 347, 2-((3-fluoro-1H-pyrrolo[2,3-b]pyridin-5-yl)oxy)-N-((4-((((1r,4r)-4-hydroxy-4-methylcyclohexyl)methyl)amino)-3-nitrophenyl)sulfonyl)-4-(6-((R)-2-(2-isopropylphenyl)-4-((9-methoxy-2,3,4,5-tetrahydrobenzo[b]oxepin-7-yl)methyl)piperazin-1-yl)-2-azaspiro[3.3]heptan-2-yl) benzamide]: the IC50 in assay [1] is 0.34 nM; in assay [2] (setting [7]) it was 0.2 nM; in assay [2] (setting [8]), 0.2 nM; in assay [3], 0.28 nM; in assay [5], 0.47 nM; in assay [6] it was 0.13 nM. In addition, the “Ratio of Bcl-2 D103Y/Bcl-2 WT” value in assay [3] came out at 1.4. The “Ratio of Bcl-2 G101V/WT” value in assay [4] is recorded as 2.3.

With `COc1cc(CN2CCN(C3CC4(C3)CN(c3ccc(C(=O)NS(=O)(=O)c5ccc(NC[C@H]6CC[C@](C)(O)CC6)c([N+](=O)[O-])c5)c(Oc5cnc6[nH]cc(F)c6c5)c3)C4)[C@H](c3ccccc3C(C)C)C2)ccc1OC(C)C` [Example 349, 2-((3-fluoro-1H-pyrrolo[2,3-b]pyridin-5-yl)oxy)-N-((4-((((1r,4r)-4-hydroxy-4-methylcyclohexyl)methyl)amino)-3-nitrophenyl)sulfonyl)-4-(6-((R)-4-(4-isopropoxy-3-methoxybenzyl)-2-(2-isopropylphenyl)piperazin-1-yl)-2-azaspiro[3.3]heptan-2-yl) benzamide], the IC50 in assay [1] stood at 0.44 nM; in assay [2] (setting [7]) it was 0.2 nM; in assay [2] (setting [8]), 0.2 nM; in assay [3] it was 0.17 nM; in assay [5], 0.43 nM; in assay [6] it was 0.16 nM. Moreover, the “Ratio of Bcl-2 D103Y/Bcl-2 WT” value in assay [3] was 0.9. Moreover, in assay [4], the “Ratio of Bcl-2 G101V/WT” value is 2.2.

With `COc1cc(CN2CCN(C3CC4(C3)CN(c3ccc(C(=O)NS(=O)(=O)c5ccc(NC[C@H]6CC[C@](C)(O)CC6)c([N+](=O)[O-])c5)c(Oc5cnc6[nH]cc(F)c6c5)c3)C4)[C@H](c3ccccc3C(C)C)C2)ccc1OC1CCC1` [Example 350, 4-(6-((R)-4-(4-cyclobutoxy-3-methoxybenzyl)-2-(2-isopropylphenyl)piperazin-1-yl)-2-azaspiro[3.3]heptan-2-yl)-2-((3-fluoro-1H-pyrrolo[2,3-b]pyridin-5-yl)oxy)-N-((4-((((1r,4r)-4-hydroxy-4-methylcyclohexyl)methyl)amino)-3-nitrophenyl)sulfonyl) benzamide], the IC50 was 0.79 nM in assay [1]; 0.48 nM in assay [2] (setting [7]); 0.48 nM in assay [2] (setting [8]); 0.65 nM in assay [3]; 0.99 nM in assay [5]; 0.23 nM in assay [6]. In assay [3], the “Ratio of Bcl-2 D103Y/Bcl-2 WT” value was determined as 1.4. In addition, the “Ratio of Bcl-2 G101V/WT” value in assay [4] worked out at 2.2.

Take `COc1cc(CN2CCN(C3CC4(C3)CN(c3ccc(C(=O)NS(=O)(=O)c5ccc(NC[C@H]6CC[C@](C)(O)CC6)c([N+](=O)[O-])c5)c(Oc5cnc6[nH]cc(F)c6c5)c3)C4)[C@H](c3ccccc3C(C)C)C2)ccc1OC1COC1` [Example 351]: the IC50 in assay [1] worked out at 0.13 nM; in assay [2] (setting [7]), 0.042 nM; in assay [2] (setting [8]), 0.04 nM; in assay [3] it was 0.07 nM; in assay [5], 0.11 nM; in assay [6] it was 0.09 nM. Besides, the “Ratio of Bcl-2 D103Y/Bcl-2 WT” value in assay [3] was found to be 1.7. Also, the “Ratio of Bcl-2 G101V/WT” value in assay [4] is listed as 2.6.

Regarding `COc1ccc(C(=O)N2CCN(C3CC4(C3)CN(c3ccc(C(=O)NS(=O)(=O)c5ccc(NC[C@H]6CC[C@](C)(O)CC6)c([N+](=O)[O-])c5)c(Oc5cnc6[nH]cc(F)c6c5)c3)C4)[C@H](c3ccccc3C(C)C)C2)cc1` [Example 353], the IC50 stood at 0.64 nM in assay [1]; 0.077 nM in assay [2] (setting [7]); 0.07 nM in assay [2] (setting [8]); 0.12 nM in assay [3]; 0.25 nM in assay [5]; 0.2 nM in assay [6]. The “Ratio of Bcl-2 D103Y/Bcl-2 WT” value in assay [3] stood at 1.5. Besides, the “Ratio of Bcl-2 G101V/WT” value in assay [4] worked out at 3.3.

For `COC1C2CC3CCC(CN4CCN(C5CC6(C5)CN(c5ccc(C(=O)NS(=O)(=O)c7ccc(NC[C@H]8CC[C@](C)(O)CC8)c([N+](=O)[O-])c7)c(Oc7cnc8[nH]cc(F)c8c7)c5)C6)[C@H](c5ccccc5C(C)C)C4)(C2)CC31` (stereo partly drawn) [Example 355, 2-((3-fluoro-1H-pyrrolo[2,3-b]pyridin-5-yl)oxy)-N-((4-((((1r,4r)-4-hydroxy-4-methylcyclohexyl)methyl)amino)-3-nitrophenyl)sulfonyl)-4-(6-((2R)-2-(2-isopropylphenyl)-4-((3-methoxyoctahydro-5H-2,5-methanoinden-5-yl)methyl)piperazin-1-yl)-2-azaspiro[3.3]heptan-2-yl)benzamide], the IC50 was determined as 2.8 nM in assay [1]; 0.31 nM in assay [2] (setting [7]); 0.31 nM in assay [2] (setting [8]); 1.8 nM in assay [3]; 1.1 nM in assay [5]; 0.2 nM in assay [6]. For the same molecule, the “Ratio of Bcl-2 D103Y/Bcl-2 WT” value in assay [3] came out at 5.8. For the same molecule, the “Ratio of Bcl-2 G101V/WT” value in assay [4] turned out to be 3.6.
